This note sets out measurements from BindingDB's records for doi:10.1016/j.bmcl.2004.04.020 (Texas Tech University Health Sciences Center, 2004).

Structures are written as SMILES. Some results are limits rather than exact numbers.

A short description of one test: Inhibition of [3H]choline brain uptake through choline transporter was determined in situ brain perfusion studies in Male Fischer-344 rats.
Consider `CCCCCCCC[N+](C)(C)CCO` [(2-Hydroxy-ethyl)-dimethyl-octyl-ammonium], for which the affinity, expressed as Ki, was 2.1 µM.

Experiment in another test: as above
This is another data set of the same source.
`C[N+](C)(C)CCCCO` came in with a Ki above 10000 µM.
Still for that read-out and setting: the value for `CC(=O)C1=CCC(CCc2ccccc2)CC1` (configuration not stated) [1-(4-Phenethyl-cyclohex-1-enyl)-ethanone] was 495 µM; that for `CC[N+](CC)(CC)CCO` was 1900 µM; that for `CSCCO` [2-Methylsulfanyl-ethanol] was above 10000 µM.
Compound `CC[N+](C)(C)C` [Ethyl-trimethyl-ammonium] had a Ki of 4700 µM.
Still for that read-out and setting: the value for `CCCC[N+](C)(C)CCO` [Butyl-(2-hydroxy-ethyl)-dimethyl-ammonium] was 40 µM.
In the case of `CCCCCCCCN1CCCCC1` [1-Octyl-piperidine], the Ki came out at 32 µM.
Still for that read-out and setting: the value for `CCC[N+](C)(C)CCO` [(2-Hydroxy-ethyl)-dimethyl-propyl-ammonium] was 190 µM.
Same read-out and setting: the same measure for `CCN1CC=C(C(C)=O)CC1` [1-(1-Ethyl-1,2,3,6-tetrahydro-pyridin-4-yl)-ethanone]: above 10000 µM.
On the same count and under the same terms, the same measure for `CN(C)C1CCCCC1O` (configuration not stated) [2-Dimethylamino-cyclohexanol]: above 10000 µM; for `C[N+](C)(C)CCCO`: 162 µM.
`CC[N+](C)(C)CCO` [Ethyl-(2-hydroxy-ethyl)-dimethyl-ammonium] displayed a Ki of 94 µM.
As to `CC(O)C[N+](C)(C)C` (stereo not drawn) [beta-methylcholine], the inhibition constant (Ki) was determined as 200 µM.
Same read-out and setting: the value for `C[N+](C)(CCO)c1ccccc1` [(2-Hydroxy-ethyl)-dimethyl-phenyl-ammonium] was above 10000 µM; that for `OCCCN1CCN(Cc2cccnc2)CC1` [3-(4-Pyridin-3-ylmethyl-piperazin-1-yl)-propan-1-ol] was above 10000 µM; that for `C[N+](C)(CCO)c1ccc(F)cc1` [(4-Fluoro-phenyl)-(2-hydroxy-ethyl)-dimethyl-ammonium] was 737 µM.
